Measured values taken from ChEMBL document CHEMBL4371080, “Multiple weak intercalation as a strategy for the inhibition of polymerases” (Bioorg Med Chem Lett, 2019).
pIC50: −log10 of the molar value. Where a SMILES comes first, the peptide text is derived from it. Bridges are numbered along the chain shown (N, C = ends). [ ]: non-standard residue; d: D form. The star is where a group is joined. ξ: configuration not given here. Quinoxaline2carbonyl = O=C(c1cnc2ccccc2n1)*; ξDap = NCC(N)C(=O)O

Key:
[1] = biological target: T1, Human immunodeficiency virus type 1 reverse transcriptase (Human immunodeficiency virus 1, UniProt Q72547); assay: Inhibition of HIV1 reverse transcriptase assessed as reduction in [3H]dTTP incorporation using poly(rA)/oligo(dT) as template/primer after 30 mins in presence of calf thymus DNA by scintillation counting method
[2] = biological target: T1, Human immunodeficiency virus type 1 reverse transcriptase; assay: Inhibition of HIV1 reverse transcriptase assessed as reduction in [3H]dTTP incorporation using poly(rA)/oligo(dT) as template/primer after 30 mins by scintillation counting method
[3] = biological target: T1, Human immunodeficiency virus type 1 reverse transcriptase; assay: Inhibition of HIV1 reverse transcriptase assessed as reduction in [3H]dTTP incorporation using poly(rA)/oligo(dT) as template/primer after 30 mins in presence of Triton-X-100 by scintillation counting method
[4] = biological target: Human immunodeficiency virus type 1 reverse transcriptase (Human immunodeficiency virus 1) (UniProt Q72547); assay: Inhibition of HIV1 reverse transcriptase assessed as reduction in [3H]dTTP incorporation by measuring proportional residual activity ratio at 20 uM using poly(rA)/oligo(dT) as template/primer after 30 mins by scintillation counting method relative to control
[5] = biological target: Human immunodeficiency virus type 1 reverse transcriptase (Human immunodeficiency virus 1) (UniProt Q72547); assay: Ratio of IC50 for inhibition of HIV1 reverse transcriptase in presence of calf thymus DNA to IC50 for inhibition of HIV1 reverse transcriptase in absence of calf thymus DNA
[6] = biological target: T2, DNA polymerase alpha catalytic subunit (Homo sapiens) (UniProt P09884); assay: Inhibition of human DNA polymerase-alpha assessed as reduction in [3H]dTTP incorporation in to activated calf thymus DNA substrate at 600 uM after 30 mins by scintillation counting method relative to control
T2 sequence (whole entry): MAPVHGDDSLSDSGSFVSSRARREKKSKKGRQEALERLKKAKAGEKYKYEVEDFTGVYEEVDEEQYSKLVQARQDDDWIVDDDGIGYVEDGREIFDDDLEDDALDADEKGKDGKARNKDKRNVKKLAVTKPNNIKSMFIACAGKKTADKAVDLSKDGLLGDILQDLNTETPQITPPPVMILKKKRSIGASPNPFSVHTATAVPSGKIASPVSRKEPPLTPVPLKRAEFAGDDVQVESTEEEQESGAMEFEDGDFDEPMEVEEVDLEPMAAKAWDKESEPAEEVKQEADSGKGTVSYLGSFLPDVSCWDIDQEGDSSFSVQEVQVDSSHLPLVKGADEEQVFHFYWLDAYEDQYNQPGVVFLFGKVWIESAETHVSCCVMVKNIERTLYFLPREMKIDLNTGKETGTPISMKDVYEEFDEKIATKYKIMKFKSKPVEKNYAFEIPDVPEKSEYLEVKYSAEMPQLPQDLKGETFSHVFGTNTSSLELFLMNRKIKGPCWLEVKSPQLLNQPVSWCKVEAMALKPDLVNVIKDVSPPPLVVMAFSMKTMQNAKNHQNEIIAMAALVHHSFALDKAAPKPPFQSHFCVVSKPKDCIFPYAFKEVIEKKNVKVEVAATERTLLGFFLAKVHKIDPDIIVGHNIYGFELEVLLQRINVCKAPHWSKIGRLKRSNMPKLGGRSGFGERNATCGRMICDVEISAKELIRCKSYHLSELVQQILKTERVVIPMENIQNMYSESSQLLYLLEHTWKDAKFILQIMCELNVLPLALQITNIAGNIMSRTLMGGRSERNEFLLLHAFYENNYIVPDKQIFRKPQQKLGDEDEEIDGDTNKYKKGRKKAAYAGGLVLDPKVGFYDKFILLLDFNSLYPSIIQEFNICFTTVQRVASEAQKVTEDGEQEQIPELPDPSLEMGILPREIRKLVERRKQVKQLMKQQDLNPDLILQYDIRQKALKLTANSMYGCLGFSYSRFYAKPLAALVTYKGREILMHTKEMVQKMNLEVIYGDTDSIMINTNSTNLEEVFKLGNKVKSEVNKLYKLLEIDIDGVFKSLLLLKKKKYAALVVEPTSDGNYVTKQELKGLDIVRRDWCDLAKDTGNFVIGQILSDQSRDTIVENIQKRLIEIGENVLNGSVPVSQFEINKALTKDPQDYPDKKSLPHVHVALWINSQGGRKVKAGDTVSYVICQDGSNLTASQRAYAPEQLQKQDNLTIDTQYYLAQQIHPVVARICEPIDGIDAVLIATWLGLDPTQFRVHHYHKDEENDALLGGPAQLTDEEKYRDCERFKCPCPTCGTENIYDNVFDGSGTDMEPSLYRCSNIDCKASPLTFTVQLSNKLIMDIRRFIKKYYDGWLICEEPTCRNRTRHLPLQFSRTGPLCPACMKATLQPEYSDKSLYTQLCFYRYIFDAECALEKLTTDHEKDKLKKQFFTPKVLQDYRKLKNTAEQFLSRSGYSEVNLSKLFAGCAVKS

[7] = biological target: Human immunodeficiency virus type 1 reverse transcriptase (Human immunodeficiency virus 1) (UniProt Q72547); assay: Inhibition of HIV1 reverse transcriptase assessed as reduction in [3H]dTTP incorporation by measuring proportional residual activity ratio at 100 uM using poly(rA)/oligo(dT) as template/primer after 30 mins by scintillation counting method
[8] = biological target: Human immunodeficiency virus type 1 reverse transcriptase (Human immunodeficiency virus 1) (UniProt Q72547); assay: Inhibition of HIV1 reverse transcriptase assessed as reduction in [3H]dTTP incorporation by measuring proportional residual activity ratio at 300 uM using poly(rA)/oligo(dT) as template/primer after 30 mins by scintillation counting method

NCC1NC(=O)C[C@@H](C(N)=O)NC(=O)C(CNC(=O)c2cnc3ccccc3n2)NC(=O)CNC(=O)CNC(=O)CNC(=O)C(CNC(=O)c2cnc3ccccc3n2)NC1=O (stereo partly drawn) ([ξDap][ξDap](Quinoxaline2carbonyl)GGG[ξDap](Quinoxaline2carbonyl)D-NH2; lactam N-7)
pIC50 [1]: 4.66
pIC50 [2]: 5.19
pIC50 [3]: 5.15
Ratio [4]: 0.09
Ratio IC50 [5]: 3.5
inhibition [6]: 89%

NC(=O)[C@@H](N)Cc1c[nH]c2ccccc12
pIC50 [2]: 2.00
pIC50 [3]: 1.80

NC(=O)[C@@H](Cc1c[nH]c2ccccc12)NC(=O)CCCNC(=O)[C@@H](N)Cc1c[nH]c2ccccc12
Ratio [7]: 0.78

NC(=O)[C@H](Cc1c[nH]c2ccccc12)NC(=O)CCCNC(=O)[C@@H](N)Cc1c[nH]c2ccccc12
Ratio [7]: 0.55

NC(=O)[C@@H](Cc1c[nH]c2ccccc12)NC(=O)CCNC(=O)[C@H](N)Cc1c[nH]c2ccccc12
Ratio [7]: 0.39

NC(=O)[C@H](Cc1c[nH]c2ccccc12)NC(=O)CCNC(=O)[C@H](N)Cc1c[nH]c2ccccc12
Ratio [8]: 0.3
pIC50 [2]: 3.73

NC(=O)[C@H](Cc1c[nH]c2ccccc12)NC(=O)CCNC(=O)[C@@H](N)Cc1c[nH]c2ccccc12
Ratio [8]: 0.25
pIC50 [2]: 3.64

COc1ccc2cc([C@H](C)C(=O)O)ccc2c1 [NAPROXEN SODIUM]
pIC50 [2]: 2.17

O=C(O)c1cnc2ccccc2n1
pIC50 [2]: 3.49
